1 compound from patent US20190015400A1, “Antifungal Compositions” (priority 2017, published 2019) can be followed below.

Series [1] deals with C. glabrata ATCC 2001 (strain H) biofilm. Briefly: Biofilm disruption assay (XTT, SMIC90), POS and EBA. Type of series: cell-based, Candida glabrata. Here is the method:
(§1) Biofilm disruption assays. […] Biofilm assays were performed in 96-well plates using XTT [2,3-bis(2-methoxy-4-nitro-5-sulfophenyl)-2H-tetrazolium-5-carboxanilide] to measure the viability of the biofilm as previously described. An overnight culture of yeast was grown at 35° C. in YEPD medium with shaking at 200 rpm. The overnight culture was diluted in RPMI 1640 medium to an OD600 between 0.12 and 0.15 to make a working stock. Working stock was transferred to the 96-well plate in 100 μL aliquots, leaving one column empty for the sterile control. The plates were incubated at 37° C. for 24 h to allow formation of the biofilm. The medium and planktonic cells from the plate were then aspirated. PBS was then used to wash any remaining planktonic cells off of the biofilm wells. 100 μL of PBS was aliquoted into wells and then removed. The wells were washed 3 times with PBS. […] Plates were incubated at 37° C. for 24 h. Finally, the plates were washed 3 times with PBS before adding 100 μL of XTT dye. The XTT was prepared by dissolving XTT at 0.5 mg/mL concentration in sterile PBS. Before adding to a plate, 1 μL of 10 mM menadione in acetone was added to 10 mL of the 0.5 mg/mL solution of XTT. After addition of XTT (containing menadione), the plates were incubated at 3 h at 37° C. in the dark. 80 μL of liquid from each well was transferred to a new plate. Plates were then read with a SpectraMax M5 plate reader (Molecular Devices, Sunnyvale, Calif., USA) for absorbance at 450 nm. For these experiments, we determined the sessile MIC (SMIC90), which is defined as the drug concentration required to inhibit the metabolic activity of biofilm by 90% compared to the growth control. The SMIC90 values were used to calculate the FICI as described above (TABLE 10). The plates used to determine the SMIC90 are provided in FIGS. 91A-H. Each assay was performed in duplicate.
For orientation: Formazan colour is commonly taken as a measure of viable cells.

Series [2] has as its system C. glabrata ATCC 2001 (strain H). Briefly: Time-kill assay, POS and EBA. Type of series: cell-based, Candida glabrata. As to conditions: drug alone (POS at concentration used in MICcombination; NYT, AMB at 1×MIC), inoculum 10^5. Here is the method:
The protocol for time-kill assays followed methods previously described with minor modifications. Yeast cultures were grown overnight in YEPD medium at 35° C. with shaking at 200 rpm. A working stock of fungal cells was made by diluting cultures in 1640 medium to an OD600 of 0.125 (˜1×10^6 CFU/mL). From the working stock, 100 μL of cells was added to 4.9 mL of RPMI 1640 medium in sterile culture tubes, making the starting fungal cell concentration ˜1×10^5 CFU/mL. Drug was then added to the fungal cells. […] Treated fungal cultures were incubated in the culture tubes at 35° C. with 200 rpm shaking for 24 h. Samples were aliquoted from the different treatments at regular time points (0, 3, 6, 9, 12, and 24 h) and plated in duplicate. For each time point, cultures were vortexed, 100 μL of culture was aspirated, and 10-fold serial dilutions were made in sterile ddH2O. From the appropriate dilutions, 100 μL of fungal suspension was spread on PDA plates and incubated at 35° C. for 48 h before colony counts were determined. At 24 h, 50 μL of 1 mM resazurin in phosphate buffered saline (PBS) was added to the treatments and incubated at 35° C. with 200 rpm shaking for 2 h in the dark for visual inspection. […] Experiments were performed in duplicate.

Series [3] concerns C. albicans ATCC 64124 (strain F) biofilm. Briefly: Biofilm disruption assay (XTT, SMIC90), POS and EBA. Type of series: cell-based, Candida albicans. As to conditions: drug alone. Here is the method: as §1
In series [4] the test system is C. albicans ATCC 10231 (strain B) biofilm. Described as above. Type of series: cell-based, Candida albicans. As to conditions: drug alone. Here is the method: as §1
The subject of another series is BEAS-2B cells. Briefly: Mammalian cytotoxicity assay, azoles and compound 2. Type of series: cell-based, human. The source says: (§2) David K. Orren (University of Kentucky, Lexington, Ky.) and Prof. David J. Feola (University of Kentucky, Lexington, Ky.), respectively.
A further series has as its system HEK-293 cells. The description is as above. Type of series: cell-based, human.
Excerpt: as §2

For series [5], the system named is C. albicans ATCC 64124 (strain F). Briefly: MIC and checkerboard assay, azoles + compounds 1-5. Type of series: cell-based, Candida albicans. As to conditions: combination compound 2 + POS. The protocol: These compounds were serially diluted (two-fold dilutions) horizontally on the plate in 100 μL of RPMI medium. A diluted yeast culture (25 μL of a fungal stock with OD600 of 0.125 in 10 mL of RPMI medium, which achieves a final inoculum size of around 1-5×10^3 CFU/mL) was plated across the plate (100 μL per well), making a final volume of 200 μL total per well.
The appropriate range of concentrations for each compound was determined based on their corresponding MIC values against each fungal strain. The inoculum size for yeast and filamentous fungi were the same as in the MIC experiments described in section 2.2. The 96-well plates were incubated at 35° C. for 48 h for yeasts and 72 h for the Aspergillus strain before visual inspection for growth. […] The combinational effect of the two tested compounds were considered synergistic (abbreviated SYN) if FICI<0.5, additive (abbreviated ADD) if 0.5<FICI<4, and antagonistic if FICI>4 (TABLES 2-4).

The test system is the same in series [6]. Briefly: Time-kill assay, azoles + compound 2. Type of series: cell-based, Candida albicans. Particulars: drug alone at the concentration of the 8×MICcombo sample; 24 h. The protocol: Each sample was incubated at 35° C. with shaking at 200 rpm. At various time points (0, 3, 6, 9, 12, and 24 h), 100 μL aliquots were taken from each sample and serially diluted (10-fold dilutions) in sterile ddH2O. 100 μL of each dilution was spread onto PDA plates and incubated at 35° C. for 48 h before colony counts were determined (FIGS. 2A-B). At the end of the 24-h experiment, 50 μL of 1 mM sterile resazurin solution was added to each sample for visual comparison of growth. Each experiment was performed in duplicate.

Setting [7] is: POS 16 μg/mL + 32 μg/mL compound 2.

On to `CC[C@@H]([C@H](C)O)n1ncn(-c2ccc(N3CCN(c4ccc(OC[C@@H]5CO[C@@](Cn6cncn6)(c6ccc(F)cc6F)C5)cc4)CC3)cc2)c1=O` [POS, posaconazole], for which, in series [1] (combination POS + EBA, SMIC90 of the labelled drug), the SMIC90 combo is 0.06 µg/mL. In addition, the SMIC90 in series [1] (drug alone), in series [3] and in series [4] was over 32 µg/mL throughout. Also, the “CFU/mL at 24 h” value in series [2] is 10^8 CFU/mL. Moreover, the cell survival in the series with BEAS-2B cells (POS 8 μg/mL + 32 μg/mL compound 2) is listed as 71±11%; in the series with BEAS-2B cells (setting [7]) it was 38±6%; with HEK-293 cells (POS 1 μg/mL + 32 μg/mL compound 2) it was 80±8%; with HEK-293 cells (setting [7]), 40±6%; with HEK-293 cells (drug alone at 16 μg/mL), “around 45±12%”. In addition, in series [5] (MIC of the labelled drug), the MIC in combination came to 4 µg/mL. Besides, the “fold reduction in MIC (combination vs alone)” value in series [5] (reduction for the labelled drug) is 8 fold. In addition, in series [6], the “increase in CFU/mL” value is on record as “about 1 order of magnitude”.
